The record followed here is patent publication US11478440B2, “Combination of Elafibranor or derivatives thereof with an anti-NASH, anti-fibrotic or anti-cholestatic agent” (GENFIT, priority 2017, dated 2022).

In the assay the test system is TGFβ1-induced hHSC. Description: α-SMA ELISA in TGFβ1-induced human primary hepatic stellate cells. In kind it is cell-based. How it is done: The human primary hepatic stellate cells (hHSC) (Innoprot) were cultured in STeCM medium (ScienCell cat #5301) that was supplemented with 2% fetal bovine serum (FBS, ScienCell cat #0010), 1% penicillin/streptomycin (ScienCell cat #0503) and stellate cell growth supplement (SteCGS; ScienCell cat #5352). Cell culture flasks were coated with Poly-L Lysine (Sigma cat #P4707) for a better adherence.
For these experiments, a checkerboard matrix was generated. ELA and component (ii) stocks were serially diluted in DMSO in 5-points series in a row (ELA) and a 11-points series in a column (component (ii)) of a 96-well plate. Subsequently, the 5×11 combination matrix was generated by 1:1 mixing of all single agent concentrations. The test concentrations for each compound were chosen based on the respective IC50 of each compound as single agent obtained by measuring α-SMA content in the HSC model stimulated with TGF-β1.
The human primary hepatic stellate cells (hHSC) (Innoprot) were cultured under standard conditions, as described above. The cells were subsequently plated at a density of 2×10^4 cells/well into 96-well plates for the measure of α-SMA by ELISA. The next day, cell-culture medium was removed, and cells were washed with PBS (Invitrogen cat #14190). hHSC were deprived for 24 hours in serum-free and SteCGS-free medium. For the treatments with ELA, component (ii) and the respective ELA/component (ii) combinations, the serum-deprived hHSC were preincubated for 1 hour with the compounds followed by addition of the profibrogenic stimuli TGF-β1 (PeproTech cat #100-21, 1 ng/mL) in serum-free and SteCGS-free medium for an additional 48 hour period.
The level of α-SMA was measured using a Sandwich ELISA. Briefly, the wells of an ELISA plate were first coated with the capture antibody (mouse monoclonal anti-ACTA2, Abnova) at 4° C. overnight. After 3 washes in PBS+0.2% Tween 20, a blocking solution consisting of PBS+0.2% BSA was added for one hour followed by another washing cycle. The cell lysates were transferred into the wells for binding to the capture antibody for a period of 2 h at room temperature. After the washing procedure, the detection antibody (biotinylated mouse monoclonal anti-ACTA2, Abnova) was added for 2 hours at room temperature followed by 3 washes. For the detection, an HRP-conjugated Streptavidin (R&D Systems cat #DY998) was first applied for 30 min at room temperature. After washing, the HRP substrate TMB (BD, #555214) was added and incubated for 7 min at room temperature in the dark. Upon oxidation, TMB forms a water-soluble blue reaction product that becomes yellow with addition of sulfuric acid (solution stop), enabling accurate measurement of the intensity at 450 nm using a spectrophotometer. The developed color is directly proportional to the amount of α-SMA present in the lysate.
The human primary hepatic stellate cells (hHSC) (Innoprot) were cultured in STeCM medium (ScienCell cat #5301) that was supplemented with 2% fetal bovine serum (FBS, ScienCell cat #0010), 1% penicillin/streptomycin (ScienCell cat #0503) and stellate cell growth supplement (SteCGS; ScienCell cat #5352). Cell-culture flasks were coated with Poly-L Lysine (Sigma cat #P4707) for a better adherence.
For these experiments, a checkerboard matrix was generated. CVC and Elafibranor stocks were serially diluted in DMSO in a 5-points series in a row (Elafibranor) and a 6-points series in a column (Cenicriviroc) of a 96-well plate. Subsequently, the […] combination matrix was generated by 1:1 mixing of all single agent concentrations. The test concentrations for each compound were chosen based on the respective IC50 of each compound as single agent obtained by measuring α-SMA content in the HSC model stimulated with TGF-β1.
The human primary hepatic stellate cells (hHSC) (Innoprot) were cultured under standard conditions, as described above. […]
On the technique in general: An ELISA detects its analyte on a solid surface through an enzyme-linked reagent.

pIC50: −log10 of the molar value.

As to “1-[4-methylthiophenyl]-3-[3,5-dimethyl-4-carboxydimethylmethyloxyphenyl]prop-2-en-1-one [Elafibranor]”, the “α-SMA inhibition over TGFβ1 control” value (5 μM of Elafibranor alone) was found to be 40%. Further, the pIC50 (TGFβ1 1 ng/ml, 48 h, single agent) was 5.50. Further, the α-SMA marker reduction (TGFβ1 1 ng/ml, 48 h, single agent, maximal reduction) is given as 80%. Also, the “antifibrotic activity (α-SMA), single agent” value (TGFβ1-activated hHSC, dose range) was “has an antifibrotic activity”.

As usually defined, the pIC50 is the negative decadic logarithm of the IC50, by convention in mol/L.
